Source: patent publication US20090018134A1, “Compounds - 945” (AstraZeneca AB, priority 2007, published 2009)

Each compound was assayed against T1, mTOR (Homo sapiens, UniProt P42345) (assay: In Vitro mTOR Kinase Assay (Echo), Test (a)(ii)). Conditions: table of enzyme assay Test (a)(ii); read-out: Test (a)(ii) IC50.
T1 construct: FLAG; made in house
Format: biochemical
Summary of the method: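 Compounds were acoustically dispensed, then incubated with FLAG-tagged mTOR (1362-2549) for 2 hours at room temperature. Reactions were quenched with EDTA plus detection antibody and AlphaScreen beads and left overnight in the dark before reading. Loss of phospho-T389 signal gave IC50 values.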

T1 sequence (P42345 1362-2549): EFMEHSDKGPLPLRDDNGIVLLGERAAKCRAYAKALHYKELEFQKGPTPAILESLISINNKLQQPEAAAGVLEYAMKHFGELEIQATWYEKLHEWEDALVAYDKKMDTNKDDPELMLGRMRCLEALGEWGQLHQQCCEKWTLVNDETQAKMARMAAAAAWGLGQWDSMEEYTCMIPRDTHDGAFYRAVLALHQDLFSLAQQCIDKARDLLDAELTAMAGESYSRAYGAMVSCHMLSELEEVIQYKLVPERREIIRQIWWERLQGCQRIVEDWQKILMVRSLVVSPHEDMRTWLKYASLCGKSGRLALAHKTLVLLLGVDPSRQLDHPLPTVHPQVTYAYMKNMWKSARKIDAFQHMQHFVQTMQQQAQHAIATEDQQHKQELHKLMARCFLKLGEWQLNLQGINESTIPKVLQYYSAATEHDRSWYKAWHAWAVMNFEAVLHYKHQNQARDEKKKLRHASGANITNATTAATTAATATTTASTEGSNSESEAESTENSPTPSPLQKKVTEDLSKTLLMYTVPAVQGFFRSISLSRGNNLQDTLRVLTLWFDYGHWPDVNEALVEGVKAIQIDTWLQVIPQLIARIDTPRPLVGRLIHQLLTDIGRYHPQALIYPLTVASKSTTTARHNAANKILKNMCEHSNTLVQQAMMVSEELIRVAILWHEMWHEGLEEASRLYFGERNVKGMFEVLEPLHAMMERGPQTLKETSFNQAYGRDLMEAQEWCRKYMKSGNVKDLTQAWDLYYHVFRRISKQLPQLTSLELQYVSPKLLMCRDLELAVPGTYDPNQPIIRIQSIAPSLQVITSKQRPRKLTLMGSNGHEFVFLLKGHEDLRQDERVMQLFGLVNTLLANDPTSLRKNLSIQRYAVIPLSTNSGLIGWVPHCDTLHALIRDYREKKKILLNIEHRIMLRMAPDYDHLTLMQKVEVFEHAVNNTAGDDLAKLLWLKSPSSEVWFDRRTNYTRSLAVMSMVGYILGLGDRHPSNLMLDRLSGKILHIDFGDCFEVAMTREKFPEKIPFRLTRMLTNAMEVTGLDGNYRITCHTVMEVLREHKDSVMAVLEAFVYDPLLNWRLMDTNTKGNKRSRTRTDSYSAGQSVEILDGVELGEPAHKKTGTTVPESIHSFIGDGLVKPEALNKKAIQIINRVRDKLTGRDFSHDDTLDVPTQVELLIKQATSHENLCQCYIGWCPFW

Row | SMILES | IC50
1 | CN(C)CCNC(=O)Nc1ccc(-c2nc(N3CCOCC3)cc(C3(S(=O)(=O)C4CC4)CC3)n2)cc1 [Example 13f, 1-[4-[4-(1-cyclopropylsulfonylcyclopropyl)-6-morpholin-4-ylpyrimidin-2-yl]phenyl]-3-(2-dimethylaminoethyl)urea] | 386 nM
2 | CCCNC(=O)Nc1ccc(-c2nc(N3CCOCC3)cc(C3(S(=O)(=O)C4CC4)CC3)n2)cc1 [Example 13g, 1-[4-[4-(1-cyclopropylsulfonylcyclopropyl)-6-morpholin-4-ylpyrimidin-2-yl]phenyl]-3-propylurea] | 4.79 nM
3 | O=C(NCCCO)Nc1ccc(-c2nc(N3CCOCC3)cc(C3(S(=O)(=O)C4CC4)CC3)n2)cc1 [Example 13h, 1-[4-[4-(1-cyclopropylsulfonylcyclopropyl)-6-morpholin-4-ylpyrimidin-2-yl]phenyl]-3-(3-hydroxypropyl)urea] | 10.6 nM
4 | Cn1cc(NC(=O)Nc2ccc(-c3nc(N4CCOCC4)cc(C4(S(=O)(=O)C5CC5)CC4)n3)cc2)cn1 [Example 13i, 1-[4-[4-(1-cyclopropylsulfonylcyclopropyl)-6-morpholin-4-ylpyrimidin-2-yl]phenyl]-3-(1-methylpyrazol-4-yl)urea] | 2.75 nM
5 | O=C(Nc1ccc(-c2nc(N3CCOCC3)cc(C3(S(=O)(=O)C4CC4)CCCC3)n2)cc1)NC1CC1 [Example 13j, 3-cyclopropyl-1-[4-[4-(1-cyclopropylsulfonylcyclopentyl)-6-morpholin-4-ylpyrimidin-2-yl]phenyl]urea] | 17.8 nM
6 | CNC(=O)Nc1ccc(-c2nc(N3CCOCC3)cc(C3(S(=O)(=O)C4CC4)CCCC3)n2)cc1 [Example 13k, 1-[4-[4-(1-cyclopropylsulfonylcyclopentyl)-6-morpholin-4-ylpyrimidin-2-yl]phenyl]-3-methylurea] | 17.9 nM
7 | O=C(NCCO)Nc1ccc(-c2nc(N3CCOCC3)cc(C3(S(=O)(=O)C4CC4)CCCC3)n2)cc1 [Example 13l, 1-[4-[4-(1-cyclopropylsulfonylcyclopentyl)-6-morpholin-4-ylpyrimidin-2-yl]phenyl]-3-(2-hydroxyethyl)urea] | 10.8 nM
8 | CC(C)(CO)NC(=O)Nc1ccc(-c2nc(N3CCOCC3)cc(C3(S(=O)(=O)C4CC4)CCCC3)n2)cc1 [Example 13m, 1-[4-[4-(1-cyclopropylsulfonylcyclopentyl)-6-morpholin-4-ylpyrimidin-2-yl]phenyl]-3-(1-hydroxy-2-methylpropan-2-yl)urea] | 53.2 nM
9 | CN(C)CCNC(=O)Nc1ccc(-c2nc(N3CCOCC3)cc(C3(S(=O)(=O)C4CC4)CCCC3)n2)cc1 [Example 13n, 1-[4-[4-(1-cyclopropylsulfonylcyclopentyl)-6-morpholin-4-ylpyrimidin-2-yl]phenyl]-3-(2-dimethylaminoethyl)urea] | 997 nM
10 | O=C(NCCCO)Nc1ccc(-c2nc(N3CCOCC3)cc(C3(S(=O)(=O)C4CC4)CCCC3)n2)cc1 [Example 13o, 1-[4-[4-(1-cyclopropylsulfonylcyclopentyl)-6-morpholin-4-ylpyrimidin-2-yl]phenyl]-3-(3-hydroxypropyl)urea] | 28.7 nM
11 | O=C(Nc1ccc(-c2nc(N3CCOCC3)cc(C3(S(=O)(=O)C4CC4)CCC3)n2)cc1)NC1CC1 [Example 13p, 3-cyclopropyl-1-[4-[4-(1-cyclopropylsulfonylcyclobutyl)-6-morpholin-4-ylpyrimidin-2-yl]phenyl]urea] | 2.02 nM
12 | CNC(=O)Nc1ccc(-c2nc(N3CCOCC3)cc(C3(S(=O)(=O)C4CC4)CCC3)n2)cc1 [Example 13q, 1-[4-[4-(1-cyclopropylsulfonylcyclobutyl)-6-morpholin-4-ylpyrimidin-2-yl]phenyl]-3-methylurea] | 1.92 nM
13 | O=C(NCCO)Nc1ccc(-c2nc(N3CCOCC3)cc(C3(S(=O)(=O)C4CC4)CCC3)n2)cc1 [Example 13r, 1-[4-[4-(1-cyclopropylsulfonylcyclobutyl)-6-morpholin-4-ylpyrimidin-2-yl]phenyl]-3-(2-hydroxyethyl)urea] | 1.98 nM
14 | CC(C)(CO)NC(=O)Nc1ccc(-c2nc(N3CCOCC3)cc(C3(S(=O)(=O)C4CC4)CCC3)n2)cc1 [Example 13s, 1-[4-[4-(1-cyclopropylsulfonylcyclobutyl)-6-morpholin-4-ylpyrimidin-2-yl]phenyl]-3-(1-hydroxy-2-methylpropan-2-yl)urea] | 8.46 nM
15 | CN(C)CCNC(=O)Nc1ccc(-c2nc(N3CCOCC3)cc(C3(S(=O)(=O)C4CC4)CCC3)n2)cc1 [Example 13t, 1-[4-[4-(1-cyclopropylsulfonylcyclobutyl)-6-morpholin-4-ylpyrimidin-2-yl]phenyl]-3-(2-dimethylaminoethyl)urea] | 172 nM
16 | O=C(NCCCO)Nc1ccc(-c2nc(N3CCOCC3)cc(C3(S(=O)(=O)C4CC4)CCC3)n2)cc1 [Example 13u, 1-[4-[4-(1-cyclopropylsulfonylcyclobutyl)-6-morpholin-4-ylpyrimidin-2-yl]phenyl]-3-(3-hydroxypropyl)urea] | 4.77 nM
17 | C[C@H]1COCCN1c1cc(C2(S(=O)(=O)C3CC3)CC2)nc(-c2ccc(NC(=O)NC3CC3)nc2)n1 [Example 14, 3-Cyclopropyl-1-[5-[4-(1-cyclopropylsulfonylcyclopropyl)-6-[(3S)-3-methylmorpholin-4-yl]pyrimidin-2-yl]pyridin-2-yl]urea] | 46.5 nM

Now from value to compound:

Row | IC50 | SMILES
18 | 13.6 nM | CNC(=O)Nc1ccc(-c2nc(N3CCOC[C@@H]3C)cc(C3(S(=O)(=O)C4CC4)CC3)n2)cn1 [Example 14a, 1-[5-[4-(1-cyclopropylsulfonylcyclopropyl)-6-[(3S)-3-methylmorpholin-4-yl]pyrimidin-2-yl]pyridin-2-yl]-3-methylurea]
19 | 18.6 nM | C[C@H]1COCCN1c1cc(C2(S(=O)(=O)c3ccc(NCCO)cc3)CC2)nc(-c2cnc(NC(=O)NCCO)nc2)n1 [Example 14aa, 3-(2-hydroxyethyl)-1-[5-[4-[1-[4-(2-hydroxyethylamino)phenyl]sulf-onylcyclopropyl]-6-[(3S)-3-methylmorpholin-4-yl]pyrimidin-2-yl]pyrimidin-2-yl]urea]
20 | 1390 nM | C[C@H]1COCCN1c1cc(C2(S(=O)(=O)C3CC3)CC2)nc(-c2ccc(NC(=O)NCCN(C)C)nc2)n1 [Example 14b, 1-[5-[4-(1-cyclopropylsulfonylcyclopropyl)-6-[(3S)-3-methylmorpholin-4-yl]pyrimidin-2-yl]pyridin-2-yl]-3-(2-dimethylaminoethyl)urea]
21 | 40.1 nM | C[C@H]1COCCN1c1cc(C2(S(=O)(=O)C3CC3)CC2)nc(-c2ccc(NC(=O)NCCO)nc2)n1 [Example 14c, 1-[5-[4-(1-cyclopropylsulfonylcyclopropyl)-6-[(3S)-3-methylmorpholin-4-yl]pyrimidin-2-yl]pyridin-2-yl]-3-(2-hydroxyethyl)urea]
22 | 14.3 nM | C[C@H]1COCCN1c1cc(C2(S(=O)(=O)C3CC3)CC2)nc(-c2ccc(NC(=O)Nc3cnn(C)c3)nc2)n1 [Example 14d, 1-[5-[4-(1-cyclopropylsulfonylcyclopropyl)-6-[(3S)-3-methylmorpholin-4-yl]pyrimidin-2-yl]pyridin-2-yl]-3-(1-methylpyrazol-4-yl)urea]
23 | 110 nM | C[C@H]1COCCN1c1cc(C2(S(=O)(=O)c3ccc(F)cc3)CC2)nc(-c2cnc(NC(=O)NC3CC3)nc2)n1 [Example 14e, 3-cyclopropyl-1-[5-[4-[1-(4-fluorophenyl)sulfonylcyclopro-pyl]-6-[(3S)-3-methylmorpholin-4-yl]pyrimidin-2-yl]pyrimidin-2-yl]urea]
24 | 189 nM | CNC(=O)Nc1ncc(-c2nc(N3CCOC[C@@H]3C)cc(C3(S(=O)(=O)c4ccc(F)cc4)CC3)n2)cn1 [Example 14f, 1-[5-[4-[1-(4-fluorophenyl)sulfonylcyclopro-pyl]-6-[(3S)-3-methylmorpholin-4-yl]pyrimidin-2-yl]pyrimidin-2-yl]-3-methylurea]
25 | 85.7 nM | C[C@H]1COCCN1c1cc(C2(S(=O)(=O)c3ccc(F)cc3)CC2)nc(-c2cnc(NC(=O)NCCO)nc2)n1 [Example 14g, 1-[5-[4-[1-(4-fluorophenyl)sulfonylcyclopro-pyl]-6-[(3S)-3-methylmorpholin-4-yl]pyrimidin-2-yl]pyrimidin-2-yl]-3-(2-hydroxyethyl)urea]
26 | 140 nM | C[C@H]1COCCN1c1cc(C2(S(=O)(=O)c3ccc(F)cc3)CC2)nc(-c2cnc(NC(=O)Nc3cnn(C)c3)nc2)n1 [Example 14h, 1-[5-[4-[1-(4-fluorophenyl)sulfonylcyclopro-pyl]-6-[(3S)-3-methylmorpholin-4-yl]pyrimidin-2-yl]pyrimidin-2-yl]-3-(1-methylpyrazol-4-yl)urea]
27 | 33.9 nM | C[C@H]1COCCN1c1cc(C2(S(=O)(=O)c3ccc(F)cc3)CC2)nc(-c2ccc(NC(=O)NC3CC3)nc2)n1 [Example 14i, 3-cyclopropyl-1-[5-[4-[1-(4-fluorophenyl)sulfonylcyclopro-pyl]-6-[(3S)-3-methylmorpholin-4-yl]pyrimidin-2-yl]pyridin-2-yl]urea]
28 | 12.9 nM | CNC(=O)Nc1ccc(-c2nc(N3CCOC[C@@H]3C)cc(C3(S(=O)(=O)c4ccc(F)cc4)CC3)n2)cn1 [Example 14j, 1-[5-[4-[1-(4-fluorophenyl)sulfonylcyclopro-pyl]-6-[(3S)-3-methylmorpholin-4-yl]pyrimidin-2-yl]pyridin-2-yl]-3-methylurea]
29 | 275 nM | C[C@H]1COCCN1c1cc(C2(S(=O)(=O)c3ccc(F)cc3)CC2)nc(-c2ccc(NC(=O)NCCN(C)C)nc2)n1 [Example 14k, 3-(2-dimethylaminoethyl)-1-[5-[4-[1-(4-fluorophenyl)sulfonylcyclopro-pyl]-6-[(3S)-3-methylmorpholin-4-yl]pyrimidin-2-yl]pyridin-2-yl]urea]
30 | 13.7 nM | C[C@H]1COCCN1c1cc(C2(S(=O)(=O)c3ccc(F)cc3)CC2)nc(-c2ccc(NC(=O)NCCO)nc2)n1 [Example 14l, 1-[5-[4-[1-(4-fluorophenyl)sulfonylcyclopro-pyl]-6-[(3S)-3-methylmorpholin-4-yl]pyrimidin-2-yl]pyridin-2-yl]-3-(2-hydroxyethyl)urea]
